Test results reported in US20210024985A1, “Devices and Methods Useful for Imaging Transient and Rare Mechanical Events in Cells” (Emory University, priority 2019, published 2021).
Like-named read-outs stand apart in the source and are kept apart here.

Key:
[1] = test system: TCR; test: TCR tension imaging of naïve OT-1 cells in real-time and locked state (mechanical sampling and scanning); type: cell-based
Procedure: Mechano-locking enhances TCR-pMHC tension signals by accumulating pulling events that are >4.7 pN. The degree of enhancement and dynamics were evaluated. OT-1 T cells were allowed to engage real-time tension probes and then incubated with unlabeled locking strand (200 nM). The unlabeled locking strand was beneficial here because it eliminated bleed-through from the Atto647N tag. Additionally, avoiding the rinsing steps accelerates the experiments and reduces perturbation of cells.
A time course for TCR-N4 pMHC tension signal accumulation for three cells upon addition of the locking strand was imaged. […] Tension occupancy, which is the fraction of the cell contact area showing tension signal, reached 91% in 10 min. The tension occupancy is an indication of the area that is mechanically scanned by the TCR with F >4.7 pN in search for antigen.
T cells mechanically sample their cognate and near cognate ligands over time. […]
The signal accumulation levels differed when cells were presented with antibody, cognate pMHC, and altered peptide ligands. To quantify these differences on a per cell basis, two parameters were defined: the mechanical sampling factor, which is the fold enhancement in integrated tension signal; and the mechanical scanning factor, which reflects the fold increase in tension occupancy (FIG. 3B). […]

[2] = test system: TCR; conditions: independent of CD8, cited from earlier work
[3] = test system: MTFM hairpin tension probe (stem-loop DNA hairpin); test: Hybridization of locking strand to folded MTFM probe versus unstructured single stranded DNA on model surfaces; type: binding
Procedure: Fluorescence measurements of in-situ hybridization kinetics between the immobilized MTFM probes and the locking oligonucleotides at 200 nM. Locking oligonucleotides were added to surfaces presenting the MTFM tension probes at room temperature and allowed to bind to the hairpin for >1 h. Hybridization was monitored by the increase in fluorescence due to hairpin opening.
The selectivity of lock strand binding to unfolded hairpins over folded ones was measured by using model surfaces that either presented a folded MTFM probe or an unstructured single stranded DNA sequence. The unstructured sequence included a complementary region to the 17mer, thus providing a model for the opened state of the MTFM hairpin probes.
Conversely, mechanical stretching of DNA with large values of tension is expected to hinder hybridization. This is because forming the B-form duplex becomes less energetically favorable. Indeed, when F≈40 pN for a 24mer, this created a barrier to hybridization. […] Given that TCR forces are below 19 pN, estimates of mechano-selectivity are justified here.
Based on these criteria, five different locking oligonucleotides were designed that ranged in length from 25mer to 13mer to screen (FIG. 7A). Gold nanoparticle MTFM tension probe surfaces were prepared (FIG. 9). […] The locking oligonucleotides were tested. The 17mer has the most desirable properties (FIG. 7C). To estimate mechano-selectivity, the differential binding of locking strand to MTFM probe at rest to that of an unstructured sequence (mimicking opened state of MTFM probe) were compared.

[4] = test system: MTFM tension probes opened by naïve OT-1 T cells; test: Locking/unlocking of tension probes presenting antiCD3ε in live naïve OT-1 T cells; type: cell-based; conditions: 200 nM unlocking strand
Procedure: The mechanically opened probes were locked with 200 nM locking strand over 10 min. After rinsing away excess locking strand, the unlocking strand was added at a final concentration of 200 nM, and the tension signal for the same cells was measured as a function of time.
To test locking/unlocking the oligonucleotide complexes in live cells, naïve OT-1 T cells were allowed to adhere and spread on MTFM probe surfaces presenting antiCD3ε antibodies. Cells generated tension signal as the TCR engaged the antibody and transmitted forces to the probes. Subsequently, the Atto647N-tagged locking strand was added for 10 min, washed, and the same T cells were imaged, confirming binding. […] Significant co-localization between the Cy3B (hairpin opening) and the Atto647N (locking strand) signals was found, as evident from linescan analysis and the Pearson's correlation coefficient of 0.72±0.096 (n=20 cells). The excess locking strand was rinsed away before re-imaging. “Erasing” the stored cellular mechanical information was tested. This process was triggered by adding 200 nM unlocking strand to the sample for 2-3 min and confirmed by imaging the same group of T cells. The unlocking process was rapid and reached completion within 60 s. Control experiments using tension probes with a scrambled stem-loop confirmed the specificity of locking real-time tension. […]

[5] = target: OT-1 T-cell receptor (TCR) on OT-1 CD8+ T cells; test: cell-based or functional assay

Molecule: N4: antigenic pMHC, peptide SIINFEKL (SEQ ID NO: 22), OT-1 TCR antigen derived from chicken ovalbumin
- enhancement of the integrated tension signal per cell ([1]; 200 nM unlabeled locking strand, n=16 cells): approximately 189 fold
- tension occupancy ([1]; in 10 min after locking strand, F >4.7 pN): 91%
- average bond lifetime ([2]; at 10 pN): 800 ms
- average bond lifetime ([2]; at zero force): 100 ms

Molecule: locking strand: 17mer locking oligonucleotide GAAAAAAACATTTATAC (SEQ ID NO: 6) that hybridizes to mechanically unfolded hairpin; 8 nt toehold at 3′ end for unlocking (listed as DNA, chemistry not fully specified)
- mechano-selectivity: differential binding to MTFM probe at rest vs unstructured sequence [3]: greater than two orders of magnitude
- hybridization to the MTFM probes among locking oligonucleotides 13mer to 25mer ([3]; 200 nM, room temperature, >1 h): optimal hybridization
- hybridization to the closed hairpin tension probe, incubation without saturation ([3]; closed hairpin tension probe): > 8 h
- difference in binding rates (lock binding selectivity between mechanically unfolded and folded probes) ([3]; pseudo first-order kinetics, one-phase association fit, unstructured sequence vs folded MTFM probe): 487 fold
- hybridization to the unstructured sequence, time to saturation ([3]; unstructured ssDNA with region complementary to the 17mer): saturated in seconds

Molecule: unlocking strand: strand (SEQ ID NO: 20) that triggers toehold-mediated strand displacement releasing the locking strand (DNA TAGGTAGGGTATAAAATGTTTTTTC; listed as DNA, chemistry not given here)
- time to completion of unlocking [4]: ≤ 60 s

Molecule: SIINFEKL (peptide-MHC, part only; not given: MHC molecule, part only) [antigenic N4 pMHC (peptide SIINFEKL, SEQ ID NO: 22)]
- enhancement of the integrated N4 tension signal per cell after locking [5]: 189 fold
- force transmitted (hairpin probe threshold) [5]: > 4.7 pN
- fraction of antigen mechanically scanned over initial contact area within 10 min migration (ICAM-1/pMHC N4 surface) [5]: 81%
- mechanical sampling factor [5]: 165 fold
- tension occupancy [5]: 91%

Molecule: SIIQFEKL (peptide-MHC, part only; not given: MHC molecule, part only) [pMHC Q4 (SIIXFEKL, SEQ ID NO: 23, X=Q)]
- mechanical sampling factor [5]: 66 fold

Molecule: SIIVFEKL (peptide-MHC, part only; not given: MHC molecule, part only) [pMHC V4 (SIIXFEKL, SEQ ID NO: 23, X=V)]
- mechanical sampling factor [5]: 33 fold

Molecule: SIIGFEKL (peptide-MHC, part only; not given: MHC molecule, part only) [mutant pMHC G4 (SIIGFEKL, SEQ ID NO: 24)]
- mechanical sampling factor [5]: 10 fold
